Broadly, the melting point is the temperature of the solid-liquid transition. The IC50 is the concentration that inhibits the measured activity by half.

SMILES strings stand for the structures. Where two headings read alike, the source gives them in different places.

Among the data in patent publication US10765681B2 (Academia Sinica, priority 2016, dated 2020) are melting point and IC50 values, retold here.

The test system of one data set is H1975 lung cancer cells. The data set can be described thus: MTT assay, growth of H1975 lung cancer cells. Type of data set: cell-based. As to conditions: Homo sapiens.
Data set [1] concerns MDA-MB231 breast cancer cells. The data set can be described thus: MTT assay, growth of MDA-MB231 breast cancer cells. As to conditions: Homo sapiens, MDA-MB-231, MDA-MB231 triple-negative breast cancer cell line, Table 3. Type of data set: cell-based. As to the method: The inhibitory effect of the exemplary compounds against MDA-MB231 breast cancer cell and H1975 lung cancer cell was evaluated. The cytotoxic activity of test compounds was examined by performing a MTT assay.
A general note: Formazan colour is commonly taken as a measure of viable cells.

Setting [2] is: NCI-H1975, H1975 lung cancer cell line, MTT, Table 3, read-out: IC50 H1975.

`CCOc1ccc(-c2nc(C#N)c3[nH]c(=O)n(-c4ccc([N+](=O)[O-])cc4)c3n2)cc1` [Compound 12d, 2-(4-Ethoxyphenyl)-9-(4-nitrophenyl)-8-oxopurine-6-carbonitrile] yielded a melting point of 293.2 to 294.8 °C. Moreover, the IC50 in the data set with H1975 lung cancer cells (setting [2]) was found to be 6.2 µM. The concentration for half-maximal inhibition (IC50) in data set [1] worked out at 2.6 µM.

In the case of `CCOc1ccc(-c2nc(C#N)c3nc(OC(=O)OCc4ccccc4)n(-c4ccccc4OC)c3n2)cc1` [Compound 17c, Benzyl 6-cyano-2-(4-ethoxyphenyl)-9-(2-methoxyphenyl)purin-8-yl carbonate], the melting point lay within 228 to 230 °C. For the same compound, the IC50 with H1975 lung cancer cells (setting [2]) turned out to be 34 µM. For the same compound, in data set [1], the IC50 amounted to 48.6 µM.

For `CCOc1ccc(-c2nc(C(=N)NOC)c3c(n2)n(-c2ccccc2OC)c(=O)n3C)cc1` [Compound 21b, 2-(4-Ethoxyphenyl)-9-(2-methoxyphenyl)-7-methyl-8-oxopurine-6-(N-methoxy)carboximidamide], the half-inhibitory concentration (IC50) in the data set on H1975 lung cancer cells (setting [2]) amounted to 42 µM; in data set [1], 56 µM.

`CCOc1ccc(-c2nc(C#N)c3nc(OC(=O)Oc4ccccc4)n(-c4ccccc4OC)c3n2)cc1` [Compound 17d, 6-Cyano-2-(4-ethoxyphenyl)-9-(2-methoxyphenyl)purin-8-yl phenyl carbonate] returned a melting point of 247 to 249 °C. The IC50 with H1975 lung cancer cells (setting [2]) worked out at 25.1 ± 0.4 µM. The IC50 in data set [1] stood at 16.9 ± 11.5 µM.

`CCOc1ccc(-c2nc(C(=N)NO)c3nc(N)n(-c4ccccc4OC)c3n2)cc1` [Compound 36a, 8-Amino-2-(4-ethoxyphenyl)-9-(2-methoxyphenyl)purine-6-(N-hydroxy)carboximidamide]: the melting point was in the range of 245 to 247 °C. For the same compound, in the data set on H1975 lung cancer cells (setting [2]), the IC50 was 11.9 µM. Further, in data set [1], 15.4 µM corresponded to half-maximal inhibition (IC50).

As for `CCOc1ccc(-c2nc(C(=N)NOC(=O)Oc3ccccc3)c3[nH]c(=O)n(-c4ccccc4OC)c3n2)cc1` [Compound 22b, 2-(4-Ethoxyphenyl)-9-(2-methoxyphenyl)-8-oxopurine-6-[N-(phenoxycarbonyl)oxy]carboximidamide], the melting point lay within 209 to 211 °C. The half-inhibitory concentration (IC50) in the data set with H1975 lung cancer cells (setting [2]) came to 3.1 µM. Moreover, 3.9 µM corresponded to half-maximal inhibition in data set [1] (IC50).

Consider `CCOc1ccc(-c2nc(C#N)c3nc(Cl)n(-c4ccccc4OC)c3n2)cc1` [Compound 31a, 8-Chloro-2-(4-ethoxyphenyl)-9-(2-methoxyphenyl)purine-6-carbonitrile], for which the melting point is 215 to 217 °C. In addition, in the data set with H1975 lung cancer cells (setting [2]), the IC50 was found to be 0.7 µM. Moreover, half-maximal inhibition in data set [1] (IC50) required 1.6 µM.

`C=CCn1c(=O)n(-c2ccccc2OC)c2nc(-c3ccc(OCC)cc3)nc(C(=N)NOC(=O)Oc3ccccc3)c21` [Compound 23a, 7-Allyl-2-(4-ethoxyphenyl)-9-(2-methoxyphenyl)-8-oxopurine-6-[N-(phenoxycarbonyl)oxy]carboximidamide] showed a melting point of 83 to 85 °C. Besides, the IC50 with H1975 lung cancer cells (setting [2]) is 51.1 µM. Also, in data set [1], the IC50 was determined as 48.1 µM.

Turning to `CCOc1ccc(-c2nc(C(=N)NOC(=O)OCc3ccccc3)c3[nH]c(=O)n(-c4ccccc4OC)c3n2)cc1` [Compound 22a, 2-(4-Ethoxyphenyl)-9-(2-methoxyphenyl)-8-oxopurine-6-[N-(benzyloxycarbonyl)oxy]carboximidamide], the melting point lay in the range of 246 to 248 °C. Also, the IC50 with H1975 lung cancer cells (setting [2]) was 3.1 µM. In data set [1], this compound came in with an IC50 of 3.9 µM.

Turning to `CCOc1ccc(-c2nc(C(=N)NO)c3c(n2)n(-c2ccccc2OC)c(=O)n3C)cc1` [Compound 21a, 2-(4-Ethoxyphenyl)-9-(2-methoxyphenyl)-7-methyl-8-oxopurine-6-(N-hydroxy)carboximidamide], the melting point lay in the range of 229 to 231 °C. Also, the IC50 in the data set on H1975 lung cancer cells (setting [2]) came out at 30 µM. Besides, the half-maximal inhibitory concentration (IC50) in data set [1] came out at 87 µM.

As to `CCOc1ccc(-c2nc(C(=O)O)c3nc(S)n(-c4ccccc4)c3n2)cc1` [Compound 29a, 2-(4-Ethoxyphenyl)-8-mercapto-9-phenylpurine-6-carboxylic acid], the melting point is 320 °C (dec.). Also, in the data set on H1975 lung cancer cells (setting [2]), the IC50 came out at 43.6 µM. The compound also yielded a half-inhibitory concentration (IC50) in data set [1] of 91 µM.

Compound `CCOc1ccc(-c2nc(C#N)c3[nH]c(=O)n(-c4cccc([N+](=O)[O-])c4)c3n2)cc1` [Compound 12e, 2-(4-Ethoxyphenyl)-9-(3-nitrophenyl)-8-oxopurine-6-carbonitrile] had a melting point of 296.1 to 297.8 °C. Also, the half-maximal inhibitory concentration (IC50) in the data set with H1975 lung cancer cells (setting [2]) came out at 4.1 µM. Besides, the IC50 in data set [1] is 3.5 µM.

`CCOc1ccc(-c2nc(C(=O)NN)c3[nH]c(=O)n(-c4ccccc4OC)c3n2)cc1` [Compound 20a, 2-(4-Ethoxyphenyl)-9-(2-methoxyphenyl)-8-oxopurine-6-carbohydrazide] registered a melting point of 273.7 to 274.5 °C. For the same compound, in the data set on H1975 lung cancer cells (setting [2]), the IC50 turned out to be 60.9 µM. The compound also had a 50% inhibitory concentration (IC50) in data set [1] of 65.3 µM.

Turning to `CCOc1ccc(-c2nc(C#N)c3nc(N(C(C)=O)C(C)=O)n(-c4ccccc4OC)c3n2)cc1` [Compound 35a, N-Acetyl-N-[6-cyano-2-(4-ethoxyphenyl)-9-(2-methoxyphenyl)purin-8-yl]acetamide], the melting point was in the range of 210 to 212 °C. Also, the IC50 with H1975 lung cancer cells (setting [2]) was found to be 14.7 µM. Also, inhibition in data set [1] was half-maximal at 11.9 µM (IC50).

For `CCOc1ccc(-c2nc(C#N)c3[nH]c(=O)n(-c4ccc(C(=O)OC)cc4)c3n2)cc1` [Compound 12b, 2-(4-Ethoxyphenyl)-9-(4-methoxycarbonylphenyl)-8-oxopurine-6-carbonitrile], the melting point was in the range of 311.1 to 312.2 °C. For the same compound, in the data set with H1975 lung cancer cells (setting [2]), the IC50 amounted to 9.8 µM. In addition, the IC50 in data set [1] was 3.9 µM.

In turn, `CCOc1ccc(-c2nc(C(N)=O)c3[nH]c(=O)n(-c4ccc([N+](=O)[O-])cc4)c3n2)cc1` [Compound 5k, 2-(4-Ethoxyphenyl)-9-(4-nitrophenyl)-8-oxopurine-6-carboxamide] gave a melting point of 307.6 to 309 °C. For the same compound, in the data set with H1975 lung cancer cells (setting [2]), the IC50 was determined as 7 µM. Half-maximal inhibition in data set [1] (IC50) required 26 µM.

As to `CCOc1ccc(-c2nc(C(=O)NOC)c3[nH]c(=O)n(-c4ccccc4OC)c3n2)cc1` [Compound 19b, 2-(4-Ethoxyphenyl)-9-(2-methoxyphenyl)-8-oxopurine-6-(N-methoxy)carb oxamide], the melting point fell in the range of 260.5 to 261.6 °C. For the same compound, the IC50 with H1975 lung cancer cells (setting [2]) is 0.3 µM. In data set [1], this compound registered an IC50 of 2.8 µM.

Take `CCOc1ccc(-c2nc(C#N)c3nc(OC(=O)OC(C)(C)C)n(-c4ccccc4OC)c3n2)cc1` [Compound 17b, Tert-butyl 6-cyano-2-(4-ethoxyphenyl)-9-(2-methoxyphenyl)purin-8-yl carbonate]: the melting point was in the range of 278 to 280 °C. For the same compound, the IC50 in the data set on H1975 lung cancer cells (setting [2]) amounted to 13 µM. Also, in data set [1], the IC50 was 22 µM.

With `COc1ccc(-c2nc(C(N)=O)c3nc(S)n(-c4ccccc4)c3n2)cc1O` [Compound 10b, 2-(3-Hydroxy-4-methoxyphenyl)-8-mercapto-9-phenylpurine-6-carboxamide], the melting point was 368.9 to 369.7 °C (dec.). Besides, in the data set on H1975 lung cancer cells (NCI-H1975, read-out: IC50 against the growth of H1975 lung cancer cells), the IC50 was determined as 0.24 ± 0.04 µM.

Regarding `CCCCNC(=N)c1nc(-c2ccc(OCC)cc2)nc2c1[nH]c(=O)n2-c1ccccc1OC` [Compound 13a, 2-(4-Ethoxyphenyl)-9-(2-methoxyphenyl)-8-oxopurine-6-(N-butyl)carboximidamide], the melting point lay in the range of 375 to 377 °C. In addition, the IC50 in the data set with H1975 lung cancer cells (setting [2]) came to 79 µM. The concentration for half-maximal inhibition (IC50) in data set [1] was 11.6 µM.

Take `CCOc1ccc(-c2nc(-c3noc(C)n3)c3[nH]c(=O)n(-c4ccccc4OC)c3n2)cc1` [Compound 24a, 2-(4-Ethoxyphenyl)-9-(2-methoxyphenyl)-6-(5-methyl-1,2,4-oxadiazol-3-yl)purin-8-one]: the melting point is 291 to 293 °C. In the data set with H1975 lung cancer cells (setting [2]), the IC50 amounted to 17 µM. Moreover, the IC50 in data set [1] came out at 64 µM.

The compound `CCOc1ccc(-c2nc(C(=O)NN(C)C)c3[nH]c(=O)n(-c4ccccc4OC)c3n2)cc1` [Compound 20b, 2-(4-Ethoxyphenyl)-9-(2-methoxyphenyl)-8-oxopurine-6-(N′,N′-dimethyl)carbohydrazide] came in with a melting point of 279.6 to 281 °C. Moreover, in the data set on H1975 lung cancer cells (setting [2]), the IC50 stood at 6.9 µM. This compound showed a concentration for half-maximal inhibition (IC50) in data set [1] of 47.2 µM.
